Results taken from US4774345A, “Amine-complexed zinc salts of organic diacids” (Engelhard Corporation, priority 1986, dated 1988).
Entries after “also recorded” stand apart in the source; their conditions may differ. Where two headings read alike, the source gives them in different places.

Columns and labels:
[1] = in vivo; cited from earlier work
[2] = Electrochemical testing (Tafel Plot), corrosion current, corrosion potential and pH of simulated acid rain saturated with pigment
[3] = Salt spray exposure, Example V (alkyd and latex primers)
Draize eye irritation = type: in vivo; conditions: 100 mg
[4] = Salt spray exposure, Example VI (ASTM B117-73; alkyd and latex primers); conditions: for Salt spray durability, in words: FIG. 3, alkyd formulation
Primary skin irritation = type: in vivo; conditions: 0.5 g in Saline Paste
Acute oral toxicity = type: in vivo
[5] = water
[6] = Table III, simulated acid rain electrolyte pH about 4.2, saturated with pigment

Q: For zinc chromate, which TDLo [1] is on record?
A: Its TDLo is 12 mg/kg.

Q: Which results are given for `NCCN.O=C([O-])CCCCCCCC(=O)[O-].[Zn+2]` [Compound 5, Zinc Azelate Ethylenediamine]?
A: pH ([2]; Table III): 6.78; Corrosion Pot. (Ecorr) ([2]; Table III, against saturated calomel electrode): -667 millivolts; Corrosion Curr. (Icorr) [2, 6]: 82 microamps; Effect of kaolin on salt spray performance ([3]; distended on kaolin): anomolously reduced the performance

Q: With `NCCN.O=C([O-])CCCCC(=O)[O-].[Zn+2]` [Compound 3, Zinc Adipate Ethylenediamine] as the compound, how does the “Corrosion Curr. (Icorr)” value [2, 6] read?
A: Its value is 78 microamps.

Q: And the “Eye Irritation, rating in words” value (Draize eye irritation)?
A: The value was “moderately-irritating”.

Q: What about the “Salt spray durability, in words” value [4] of the same compound?
A: The value was “superior to "Zinc Yellow" (zinc chromate) in salt spray durability”.

Q: And the “Skin Irritation, rating in words” value (Primary skin irritation)?
A: Its value is “minimally irritating”.

Q: Which results are given for “Zinc Thiodiphenolate Propylenediamine [Compound 20]”?
A: Corrosion Curr. (Icorr) [2]: 46 microamps; Corrosion Pot. (Ecorr) [2]: -560 millivolts; pH [2]: 8.18

Q: For `CCNCC.O=C([O-])CCCCCCCCCCC(=O)[O-].[Zn+2]` [Compound 12, Zinc Dodecanedioate Diethylamine], which “Corrosion Curr. (Icorr)” value [2] is on record?
A: The value was 197 microamps.

Q: Which results are given for “Zinc Sulfonyldiphenolate Ethylenediamine [Compound 15]”?
A: Corrosion Curr. (Icorr) [2]: 170 microamps; Corrosion Pot. (Ecorr) [2]: -592 millivolts; pH [2]: 7.67; Eye Irritation, rating in words (Draize eye irritation): severely irritating; Skin Irritation, rating in words (Primary skin irritation): non-irritating

Q: With `CC(N)CN.O=C([O-])CCCCC(=O)[O-].[Zn+2]` [Compound 4, Zinc Adipate Propylenediamine] as the compound, how does the “Salt spray durability, in words” value [4] read?
A: Its value is “superior to "Zinc Yellow" (zinc chromate) in salt spray durability”.

Q: Which results are given for `NCCN.O=C([O-])CCCCCCCCCCC(=O)[O-].[Zn+2]` [Compound 11, Zinc Dodecanedioate Ethylenediamine]?
A: Corrosion Curr. (Icorr) [2, 6]: 130 microamps; Salt spray durability, in words [4]: superior to "Zinc Yellow" (zinc chromate) in salt spray durability

Q: What does the source list for `O=C([O-])CCCCCCCCCCC(=O)[O-].OCCN(CCO)CCO.[Zn+2]` [Compound 10, Zinc Dibasate Triethanolamine]?
A: Corrosion Curr. (Icorr) [2]: 93 microamps; Corrosion Pot. (Ecorr) [2]: -580 millivolts; pH [2]: 7.2

Q: What does the source list for “Zinc Dibasate Dimethylamine [Compound 21]”?
A: Corrosion Curr. (Icorr) [2]: 82 microamps; Corrosion Pot. (Ecorr) [2]: -610 millivolts

Q: Which results are given for “Zinc Thiodiphenolate Ethylenediamine [Compound 14]”?
A: Corrosion Curr. (Icorr) [2]: 52.5 microamps; Corrosion Pot. (Ecorr) [2]: -570 millivolts; pH [2]: 8.60; Effect of kaolin on salt spray performance [3]: kaolin likewise enhanced the performance; Hours to failure in salt spray (performance level) [3]: approximately 780 hours; Eye Irritation, rating in words (Draize eye irritation): extremely irritating; Paint panel durability in salt spray, in words [4]: slightly less than half the durability achieved by the commercial "Zinc Yellow" (zinc chromate) corrosion-inhibitor formulation; also recorded: performed markedly better than commercially available corrosion inhibitors, such as Nalzin, Halox, Busan, "Moly White" and zinc phosphate; Toxicity characteristics (overall statement) (Acute oral toxicity; acute oral, skin and eye tests of Table VIII): unacceptable toxicity characteristics

Q: What does the source list for `NCCN.O=C([O-])c1ccccc1C(=O)[O-].[Zn+2]` [Compound 17, Zinc Phthalate Ethylenediamine]?
A: Corrosion Curr. (Icorr) [2]: 83 microamps; Skin Irritation, rating in words (Primary skin irritation): non-irritating

Q: With “Zinc Dibasate Propylenediamine [Compound 8]” as the compound, how does the “Solubility Description” value [5] read?
A: Its value is “SS (key: PINS: practically insoluble (<.1 g/100 cc H2 O); SS: slightly soluble (.1 to 1 g/100 cc H2 O); MS: moderately soluble)”.

Q: What does the source list for Zinc Dibasate Diethylamine [Compound 9]?
A: Corrosion Pot. (Ecorr) [2]: -570 millivolts; pH [2]: 7.0; Eye Irritation, rating in words (Draize eye irritation): mildly irritating; Acute oral toxicity, mortality (Acute oral toxicity; Oral (5 g/kg in Corn Oil)): 0%

Q: What does the source list for `NCCN.O=C([O-])CCCCCCCCC(=O)[O-].[Zn+2]` [Compound 6, Zinc Sebacate Ethylenediamine]?
A: Corrosion Curr. (Icorr) [2]: 170 microamps; Corrosion Pot. (Ecorr) [2]: -462 millivolts; pH [2]: 6.8; Eye Irritation, rating in words (Draize eye irritation): severely irritating; Skin Irritation, rating in words (Primary skin irritation): minimally irritating

Q: Which “Corrosion Curr. (Icorr)” value [2] does the source give for Zinc Dibasate Piperidine [Compound 24] here?
A: Its value is 40 microamps.

Q: What about the “Corrosion Pot. (Ecorr)” value [2] of the same compound?
A: Its value is -610 millivolts.

Q: With `NCCN.O=C([O-])c1cccc(C(=O)[O-])c1.[Zn+2]` [Compound 18, Zinc Isophthalate Ethylenediamine] as the compound, how does the “Salt spray durability, in words” value [4] read?
A: The value was “superior to "Zinc Yellow" (zinc chromate) in salt spray durability”.
